The values that follow come from US20230159532A1, “PARATHYROID HORMONE (PTH) RECEPTOR ANTAGONISTS AND USES THEREOF” (Crinetics Pharmaceuticals, Inc., priority 2021, published 2023).

Bounds are passed on as bounds.

The experiment concerns the target T1, human PTHR1 receptor (Homo sapiens, UniProt Q03431).
T1 construct: purchased Eurofins HTS030M
T1 sequence (Q03431 27-593): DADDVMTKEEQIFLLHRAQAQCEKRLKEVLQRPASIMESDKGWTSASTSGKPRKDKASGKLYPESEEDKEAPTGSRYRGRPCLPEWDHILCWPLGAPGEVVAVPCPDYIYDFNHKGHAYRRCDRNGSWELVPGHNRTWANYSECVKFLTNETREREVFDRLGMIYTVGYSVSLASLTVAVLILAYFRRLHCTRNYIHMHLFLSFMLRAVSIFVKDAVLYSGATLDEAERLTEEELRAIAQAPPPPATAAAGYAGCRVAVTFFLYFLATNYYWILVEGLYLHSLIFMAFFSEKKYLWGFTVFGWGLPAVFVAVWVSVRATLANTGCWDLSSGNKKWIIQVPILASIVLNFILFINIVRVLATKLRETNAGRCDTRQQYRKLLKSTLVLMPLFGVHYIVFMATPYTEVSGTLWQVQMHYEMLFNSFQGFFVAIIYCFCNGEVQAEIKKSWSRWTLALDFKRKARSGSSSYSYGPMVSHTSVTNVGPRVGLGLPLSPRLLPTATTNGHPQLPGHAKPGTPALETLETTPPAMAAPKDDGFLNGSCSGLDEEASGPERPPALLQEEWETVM
The experiment can be described thus: Competitive antagonist binding assay for hPTH-R1 (radioactive competition binding, SPA beads). The following applies: human PTHR1 membranes, [125I]-[Nle8,18,Tyr34]-PTH(1-34) 0.2 nM, 90 minutes at room temperature; read-out: hPTHR1 Ki. In a few lines:
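Human PTHR1 membranes on SPA beads incubated 90 min at room temperature with compound (typically 0-10,000 nM final) and 0.2 nM [125I]-[Nle8,18,Tyr34]-PTH(1-34) in HEPES buffer with MgCl2, CaCl2, BSA, Triton X-100 and protease inhibitors, pH 7.4. Scintillation signal read; Ki values derived.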

The term Ki denotes the dissociation constant of the complex between target and ligand, obtained from inhibition or displacement.

Take `CCN1C(=O)N(c2ccc(NCCNC)cc2)c2cc(Cl)ccc2-c2cc(F)cnc21` [2-4, 13-chloro-8-ethyl-4-fluoro-10-(4-{[2-(methylamino)ethyl]amino}phenyl)-6,8,10-triazatricyclo[9.4.0.0^2,7]pentadeca-1(11),2(7),3,5,12,14-hexaen-9-one]: the Ki was less than 100 nM.

Regarding `CCN1C(=O)N(c2c(F)cc(NCCNC[C@H]3CCC(=O)N3)cc2F)c2cc(C#N)ccc2-c2cc(Cl)cnc21` [1-170, 4-chloro-10-(2,6-difluoro-4-{[2-({[(2R)-5-oxopyrrolidin-2-yl]methyl}amino)ethyl]amino}phenyl)-8-ethyl-9-oxo-6,8,10-triazatricyclo[9.4.0.0^2,7]pentadeca-1(11),2(7),3,5,12,14-hexaene-13-carbonitrile], the Ki is less than 100 nM.

Take `CCN1C(=O)N(c2c(F)cc(NCCNCC(=O)O)cc2F)c2cc(C#N)ccc2-c2cc(C(F)(F)F)cnc21` [1-227, 2-{[2-({4-[13-cyano-8-ethyl-9-oxo-4-(trifluoromethyl)-6,8,10-triazatricyclo[9.4.0.0^2,7]pentadeca-1(11),2(7),3,5,12,14-hexaen-10-yl]-3,5-difluorophenyl}amino)ethyl]amino}acetic acid]: the Ki is less than 100 nM.

Regarding `CCN1C(=O)N(c2c(F)cc(NCCNC[C@@H](O)CO)cc2F)c2cc(C#N)ccc2-c2cc(Cl)cnc21` [1-183, 4-chloro-10-{4-[(2-{[(2R)-2,3-dihydroxypropyl]amino}ethyl)amino]-2,6-difluorophenyl}-8-ethyl-9-oxo-6,8,10-triazatricyclo[9.4.0.0^2,7]pentadeca-1(11),2(7),3,5,12,14-hexaene-13-carbonitrile], the Ki was less than 100 nM.

For the compound `CCN1C(=O)N(c2c(F)cc(NCCNCCCC(=O)O)cc2F)c2cc(C(F)(F)F)ccc2-c2cc(F)cnc21` [1-69, 4-{[2-({4-[8-ethyl-4-fluoro-9-oxo-13-(trifluoromethyl)-6,8,10-triazatricyclo[9.4.0.0^2,7]pentadeca-1(11),2(7),3,5,12,14-hexaen-10-yl]-3,5-difluorophenyl}amino)ethyl]amino}butanoic acid], the Ki is less than 100 nM.

Consider `CCN1C(=O)N(c2c(F)cc(NCCNC[C@H](C)O)cc2F)c2cc(C#N)ccc2-c2cc(F)cnc21` [1-199, 10-{2,6-difluoro-4-[(2-{[(2S)-2-hydroxypropyl]amino}ethyl)amino]phenyl}-8-ethyl-4-fluoro-9-oxo-6,8,10-triazatricyclo[9.4.0.0^2,7]pentadeca-1(11),2(7),3,5,12,14-hexaene-13-carbonitrile], for which the Ki is less than 100 nM.

Take `CCN1C(=O)N(c2c(F)cc(NCCNCCCC(=O)O)cc2F)c2cc(Cl)ccc2-c2cc(Cl)cnc21` [1-10, 4-({2-[(4-{4,13-dichloro-8-ethyl-9-oxo-6,8,10-triazatricyclo[9.4.0.0^2,7]pentadeca-1(11),2(7),3,5,12,14-hexaen-10-yl}-3,5-difluorophenyl)amino]ethyl}amino)butanoic Acid]: the Ki was less than 100 nM.

With `CCN1C(=O)N(c2c(F)cc(NCCNC(C)CO)cc2F)c2cc(C#N)ccc2-c2cc(Cl)cnc21` (stereo not shown) [1-149, 4-chloro-10-[2,6-difluoro-4-({2-[(1-hydroxypropan-2-yl)amino]ethyl}amino)phenyl]-8-ethyl-9-oxo-6,8,10-triazatricyclo[9.4.0.0^2,7]pentadeca-1(11),2(7),3,5,12,14-hexaene-13-carbonitrile], the Ki was less than 100 nM.

On to `CCN1C(=O)N(c2c(F)cc(NCCNC3CCOC3)cc2F)c2cc(Cl)ccc2-c2cc(C)cnc21` (stereo not shown) [1-28, 13-chloro-10-[2,6-difluoro-4-({2-[(oxolan-3-yl)amino]ethyl}amino)phenyl]-8-ethyl-4-methyl-6,8,10-triazatricyclo[9.4.0.0^2,7]pentadeca-1(11),2(7),3,5,12,14-hexaen-9-one], for which the Ki was less than 100 nM.

As to `CCN1C(=O)N(c2c(F)cc(NCCC(=O)O)cc2F)c2cc(Cl)ccc2-c2cc(Cl)cnc21` [1-50, 3-[(4-{4,13-dichloro-8-ethyl-9-oxo-6,8,10-triazatricyclo[9.4.0.0^2,7]pentadeca-1(11),2(7),3,5,12,14-hexaen-10-yl}-3,5-difluorophenyl)amino]propanoic acid], the Ki is more than 10000 nM.

As for `CNCCNc1cc(F)c(N2C(=O)N(C(C)C)c3ncc(F)cc3-c3c(F)cc(C#N)cc32)c(F)c1` [1-107, 10-(2,6-difluoro-4-{[2-(methylamino)ethyl]amino}phenyl)-4,15-difluoro-9-oxo-8-(propan-2-yl)-6,8,10-triazatricyclo[9.4.0.0^2,7]pentadeca-1(11),2(7),3,5,12,14-hexaene-13-carbonitrile], the Ki is less than 100 nM.

As to `CCN1C(=O)N(c2c(F)cc(NCCNC[C@H](O)CO)cc2F)c2cc(C#N)ccc2-c2cc(Cl)cnc21` [1-171, 4-chloro-10-{4-[(2-{[(2S)-2,3-dihydroxypropyl]amino}ethyl)amino]-2,6-difluorophenyl}-8-ethyl-9-oxo-6,8,10-triazatricyclo[9.4.0.0^2,7]pentadeca-1(11),2(7),3,5,12,14-hexaene-13-carbonitrile], the Ki is less than 100 nM.

Turning to `CCN1C(=O)N(c2c(F)cc(NCCNCCO)cc2F)c2cc(Cl)cc(F)c2-c2cc(F)cnc21` [1-95, 13-chloro-10-[2,6-difluoro-4-({2-[(2-hydroxyethyl)amino]ethyl}amino)phenyl]-8-ethyl-4,15-difluoro-6,8,10-triazatricyclo[9.4.0.0^2,7]pentadeca-1(11),2(7),3,5,12,14-hexaen-9-one], the Ki was less than 100 nM.

As for `CCN1C(=O)N(c2ccc(NCCNCCO)cc2F)c2cc(Cl)ccc2-c2cc(Cl)cnc21` [2-7, 4,13-dichloro-8-ethyl-10-[2-fluoro-4-({2-[(2-hydroxyethyl)amino]ethyl}amino)phenyl]-6,8,10-triazatricyclo[9.4.0.0^2,7]pentadeca-1(11),2(7),3,5,12,14-hexaen-9-one], the Ki is less than 100 nM.

As for `CCN1C(=O)N(c2c(F)cc(NCCNCC(N)CO)cc2F)c2cc(C#N)ccc2-c2cc(Cl)cnc21` (stereo not shown) [1-225, 10-[4-({2-[(2-amino-3-hydroxypropyl)amino]ethyl}amino)-2,6-difluorophenyl]-4-chloro-8-ethyl-9-oxo-6,8,10-triazatricyclo[9.4.0.0^2,7]pentadeca-1(11),2(7),3,5,12,14-hexaene-13-carbonitrile], the inhibition constant Ki is less than 100 nM.

Take `CCN1C(=O)N(c2c(F)cc(NCCNCC(O)CO)cc2F)c2cc(C#N)ccc2-c2cc(Cl)cnc21` (stereo not shown) [1-156, 4-chloro-10-[4-({2-[(2,3-dihydroxypropyl)amino]ethyl}amino)-2,6-difluorophenyl]-8-ethyl-9-oxo-6,8,10-triazatricyclo[9.4.0.0^2,7]pentadeca-1(11),2(7),3,5,12,14-hexaene-13-carbonitrile]: the Ki is less than 100 nM.

On to `CCN1C(=O)N(c2c(F)cc(NCC3CNC3)cc2F)c2cc(C#N)ccc2-c2cc(Cl)cnc21` [1-145, 10-(4-{[(azetidin-3-yl)methyl]amino}-2,6-difluorophenyl)-4-chloro-8-ethyl-9-oxo-6,8,10-triazatricyclo[9.4.0.0^2,7]pentadeca-1(11),2(7),3,5,12,14-hexaene-13-carbonitrile], for which the Ki is less than 100 nM.

Consider `CCN1C(=O)N(c2c(F)cc(NCCNC)cc2F)c2ccccc2-c2cc(Cl)cnc21` [1-135, 4-chloro-10-(2,6-difluoro-4-{[2-(methylamino)ethyl]amino}phenyl)-8-ethyl-6,8,10-triazatricyclo[9.4.0.0^2,7]pentadeca-1(11),2(7),3,5,12,14-hexaen-9-one], for which the Ki was less than 100 nM.

On to `CC(C)N1C(=O)N(c2c(F)cc(NCCNCCCC(=O)O)cc2F)c2cc(C#N)ccc2-c2cc(Cl)cnc21` [1-93, 4-{[2-({4-[4-chloro-13-cyano-9-oxo-8-(propan-2-yl)-6,8,10-triazatricyclo[9.4.0.0^2,7]pentadeca-1(11),2(7),3,5,12,14-hexaen-10-yl]-3,5-difluorophenyl}amino)ethyl]amino}butanoic acid], for which the Ki is less than 100 nM.

With `CCN1C(=O)N(c2c(F)cc(N3CC[C@H](N)C3)cc2F)c2cc(Cl)ccc2-c2cc(Cl)cnc21` [1-43, 10-{4-[(3S)-3-aminopyrrolidin-1-yl]-2,6-difluorophenyl}-4,13-dichloro-8-ethyl-6,8,10-triazatricyclo[9.4.0.0^2,7]pentadeca-1(11),2(7),3,5,12,14-hexaen-9-one], the Ki is less than 100 nM.

In the case of `CCN1C(=O)N(c2c(F)cc(NCCNCCO)cc2F)c2cc(C)ccc2-c2cc(F)cnc21` [1-226, 10-[2,6-difluoro-4-({2-[(2-hydroxyethyl)amino]ethyl}amino)phenyl]-8-ethyl-4-fluoro-13-methyl-6,8,10-triazatricyclo[9.4.0.0^2,7]pentadeca-1(11),2(7),3,5,12,14-hexaen-9-one], the Ki is less than 100 nM.

`Cc1cc(Cl)cc2c1-c1cc(F)cnc1N(C(C)C)C(=O)N2c1c(F)cc(NCCNCCCC(=O)O)cc1F` [1-80, 4-{[2-({4-[13-chloro-4-fluoro-15-methyl-9-oxo-8-(propan-2-yl)-6,8,10-triazatricyclo[9.4.0.0^2,7]pentadeca-1(11),2(7),3,5,12,14-hexaen-10-yl]-3,5-difluorophenyl}amino)ethyl]amino}butanoic acid]: the Ki is less than 100 nM.
